Read-outs that look alike come from different tables or passages of the source.
Tests used:
Assay type in all cases: cell-based
[1] = tested on: Tpm3.1-containing actin filaments in SK-N-SH neuroblastoma cells; test: Microfilament disruption assay, γ9d staining; settings: 0-40 μM, 24 hours post treatment
Procedure: (§1) FIG. 2: Imaging and quantitation of actin filaments in SK-N-SH neuroblastoma cells treated with compound (A) 3504, (B) 3507 and (C) 3516. Cells were stained with γ9d (sheep polycolonal, 1:100) followed by 488-conjugated secondary (1:1000) and DAPI to visualize the Tpm3.1 containing filament bundles and the nucleus, respectively. Shown in the top panel is a representative grey scale immunofluorescent image from control (vehicle alone), 5 μM and 10 μM treated cells. […] The coloured lines indicate the detected actin filaments. Also shown is the quantitation of cell number, filament number/cell and filament number/cell area (μM^2). […]
(§2) The ability of compounds 3504, 3507 and 3516 to disrupt the total actin cytoskeleton (FIG. 1) and to specifically target Tpm3.1-containing actin filaments (FIG. 2) was assessed in vitro using the microfilament disruption assay.
(§3) Briefly, SK-N-SH neuroblastoma cells were seeded at 1800 cells/well in a 384 Perkin Elmer High Content Imaging “View” plate and left to plate down 24 hours prior to treatment. […] Images were then exported and changes in the organization and numbers of actin filaments within the cell were quantitated using a linear feature detection algorithm developed by the CSIRO (Vindin et al., 2014). […] It is these “ridge lines” that correspond to actin filament bundles and allow us to quantitate the number of filaments per cell.

[2] = tested on: total actin cytoskeleton in SK-N-SH neuroblastoma cells; test: Microfilament disruption assay, phalloidin staining; settings: 0-40 μM, 24 hours post treatment
Procedure: as §1, with “1:” for “2:”, “488-Atto-Phallodin” for “γ9d (sheep polycolonal, 1:100) followed by 488-conjugated secondary (1:1000)”, “actin” for “Tpm3.1 containing”
as §2, §3

[3] = tested on: MDA-MB-231; test: Anti-proliferative activity, cell-titre luminescent viability assay; settings: Homo sapiens, read-out: IC50 Breast MDA-MB-231
Method in brief: (§4)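 Cells were seeded at pre-determined densities, cultured 24 hours at 37° C/5% CO2, then exposed 72 hours to compound at 0.03, 0.3, 3 and 30 μM or at 0.1, 0.3, 1, 3, 10 and 30 μM. Viability was read by cell-titre luminescence after 30 min, normalized to untreated control, and IC50 or EC50 derived.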

[4] = tested on: DU145; test: as above; settings: Homo sapiens, read-out: IC50 Prostate DU145
Method in brief: as §4

[5] = tested on: CaCo2; test: as above; settings: Homo sapiens, read-out: IC50 Colorectal CaCo2
Method in brief: as §4

[6] = tested on: SK-N-SH; test: as above; settings: Homo sapiens, SK-N-SH, read-out: IC50 Neuroblastoma SK-N-SH
Method in brief: as §4

[7] = tested on: A549; test: as above; settings: Homo sapiens, read-out: IC50 Lung (NSLC) A549
Method in brief: as §4

[8] = tested on: PC3; test: as above; settings: Homo sapiens, read-out: IC50 Prostate PC3
Method in brief: as §4

[9] = tested on: SK-Mel-28; test: as above; settings: Homo sapiens, SK-MEL-28, 72 hours, read-out: IC50 Melanoma SK-Mel-28
Method in brief: as §4

[10] = tested on: IL-6; test: Inhibition of cytokine release from PBMCs (HTRF); settings: PBMC, human PBMCs, LPS stimulated
Procedure: (§5) The ability of compounds 3507, 3520, 3534 and 3538 to inhibit the release of cytokines TNF-α, IFN-γ, IL-6, IL-21, IL-17A and IL-23 was evaluated in vitro (Tables 4 and 5). Briefly, human peripheral blood mononuclear cells (PBMCs) were isolated from human peripheral blood by Histopaque density gradient centrifugation. The freshly isolated PBMCs were seeded at 50,000 cells/well in a 96-well half area plate. PBMCs were dosed with the test compounds (at 10 μM, 1 μM and 0.1 μM) and then incubated at 37° C. and 5% CO2 for 2 hours. To stimulate release of the cytokines IFN-γ, IL-21, IL-17A and IL-23, the PBMCs were treated with 50 ng/mL of phorbol 12-myristate 13-acetate (PMA) and 1 μg/mL of ionomycin and to stimulate the release of TNF-α and IL-6, PBMCs were treated with 100 ng/mL of lipopolysaccharide (LPS) from gram-negative bacteria. The PBMCs were then incubated at 37° C. and 5% CO2 for a further 6 hours and the cell supernatant was collected and a Homogenous Time Resolved Fluorescence (HTRF) assay was carried out following the manufacturer's instructions. Cytokine release from the PBMCs was captured using a Perkin Elmer ENVISION 2104 microplate reader set at 615 nm and 665 nm respectively.

[11] = tested on: TNF-α; test: Inhibition of cytokine release from PBMCs (HTRF); settings: PBMC, human PBMCs, LPS stimulated
Procedure: as §5

[12] = tested on: IL-17A; test: Inhibition of cytokine release from PBMCs (HTRF); settings: PBMC, human PBMCs, PMA and ionomycin stimulated
Procedure: as §5

[13] = tested on: IL-21; test: Inhibition of cytokine release from PBMCs (HTRF); settings: PBMC, human PBMCs, PMA and ionomycin stimulated
Procedure: as §5

[14] = tested on: IFN-γ; test: Inhibition of cytokine release from PBMCs (HTRF); settings: PBMC, human PBMCs, PMA and ionomycin stimulated
Procedure: as §5

[15] = tested on: IL-23; test: Inhibition of cytokine release from PBMCs (HTRF); settings: PBMC, human PBMCs, PMA and ionomycin stimulated
Procedure: as §5

[16] = MDA-MB-231, 72 h, 0.1, 0.3, 1, 3, 10 and 30 μM, nonlinear regression sigmoidal dose-response (EC50)
[17] = DU-145, 72 h, 0.1, 0.3, 1, 3, 10 and 30 μM, nonlinear regression sigmoidal dose-response (EC50)
[18] = Caco-2, 72 h, 0.1, 0.3, 1, 3, 10 and 30 μM, nonlinear regression sigmoidal dose-response (EC50)
[19] = 72 h, 0.1, 0.3, 1, 3, 10 and 30 μM, nonlinear regression sigmoidal dose-response (EC50)
[20] = A549, 72 h, 0.1, 0.3, 1, 3, 10 and 30 μM, nonlinear regression sigmoidal dose-response (EC50)
[21] = PC-3, 72 h, 0.1, 0.3, 1, 3, 10 and 30 μM, nonlinear regression sigmoidal dose-response (EC50)
[22] = 0.1, 0.3, 1, 3, 10 and 30 μM, nonlinear regression sigmoidal dose-response (EC50)
[23] = MDA-MB-231, 72 h, 0.03, 0.3, 3 and 30 μM, linear regression of semi-log plots
[24] = DU-145, 72 h, 0.03, 0.3, 3 and 30 μM, linear regression of semi-log plots
[25] = Caco-2, 72 h, 0.03, 0.3, 3 and 30 μM, linear regression of semi-log plots
[26] = 72 h, 0.03, 0.3, 3 and 30 μM, linear regression of semi-log plots
[27] = A549, 72 h, 0.03, 0.3, 3 and 30 μM, linear regression of semi-log plots
[28] = PC-3, 72 h, 0.03, 0.3, 3 and 30 μM, linear regression of semi-log plots
[29] = 0.03, 0.3, 3 and 30 μM, linear regression of semi-log plots

| Structure (SMILES) | disruption of Tpm3.1-containing actin filaments [1] | disruption of the total actin cytoskeleton [2] | IC50 [3, 16] [nM] | IC50 [4, 17] [nM] | IC50 [5, 18] [nM] | IC50 [6, 19] [nM] | IC50 [7, 20] [nM] | IC50 [8, 21] [nM] | IC50 [9, 22] [nM] | IC50 [3, 23] [nM] | IC50 [4, 24] [nM] | IC50 [5, 25] [nM] | IC50 [6, 26] [nM] | IC50 [7, 27] [nM] | IC50 [8, 28] [nM] | IC50 [9, 29] [nM] | inhibition at 0.1 µM [10] [%] | inhibition at 1 µM [10] [%] | inhibition at 10 µM [10] [%] | inhibition at 0.1 µM [11] [%] | also measured |
| --- | --- | --- | --- | --- | --- | --- | --- | --- | --- | --- | --- | --- | --- | --- | --- | --- | --- | --- | --- | --- | --- |
| Cc1c(C)n(CCCN2CCN(C)CC2)c2ccc(Cc3cccc(C(=O)N4CCN(CCc5cccc(F)c5)CC4)c3)cc12 [Compound 3504, (3-((2,3-dimethyl-1-(3-(4-methylpiperazin-1-yl)propyl)-1H-indol-5-yl)methyl)phenyl)(4-(3-fluorophenethyl)piperazin-1-yl)methanone] | in a dose-dependent manner | in a dose-dependent manner | 1500 | 1400 | 1800 | 1500 | 1600 | 2000 | 1100 |  |  |  |  |  |  |  |  |  |  |  |  |
| Cc1c(C)n(CCCN2CCN(C)CC2)c2ccc(Nc3cccc(C(=O)N4CCN(CCc5cccc(F)c5)CC4)c3)cc12 [Compound 3516, (3-((2,3-dimethyl-1-(3-(4-methylpiperazin-1-yl)propyl)-1H-indol-5-yl)amino)phenyl)(4-(3-fluorophenethyl)piperazin-1-yl)methanone] | in a dose-dependent manner | in a dose-dependent manner |  |  |  |  |  |  |  | 1300 | 3000 | 2100 | 1400 | 2200 | 3500 | 2600 |  |  |  |  |  |
| Cc1c(C)n(CCCN2CCN(C)CC2)c2ccc(Nc3ccc(C(=O)N4CCN(CCc5cccc(F)c5)CC4)cc3)cc12 [Compound 3534, (4-((2,3-dimethyl-1-(3-(4-methylpiperazin-1-yl)propyl)-1H-indol-5-yl)amino)phenyl)(4-(3-fluorophenethyl)piperazin-1-yl)methanone] |  |  |  |  |  |  |  |  |  | 1600 | 1400 | 3200 | 1400 | 1500 | 2800 | 1200 | 13 | 21 | 48 | 2 | inhibition at 1 µM [11]: 5%; inhibition at 10 µM [11]: -12%; inhibition at 0.1 µM [12]: 1%; inhibition at 1 µM [12]: 1%; inhibition at 10 µM [12]: 12%; inhibition at 0.1 µM [13]: 0%; inhibition at 1 µM [13]: -8%; inhibition at 10 µM [13]: 11%; inhibition at 0.1 µM [14]: 23%; inhibition at 1 µM [14]: 39%; inhibition at 10 µM [14]: 85%; inhibition at 0.1 µM [15]: -5%; inhibition at 1 µM [15]: -1%; inhibition at 10 µM [15]: 20% |
| COc1ccc2cc(CCN3CCN(C(=O)c4cccc(Cc5ccc6c(c5)c(C)c(C)n6CCCN5CCN(C)CC5)c4)CC3)ccc2c1 [Compound 3538, (3-((2,3-dimethyl-1-(3-(4-methylpiperazin-1-yl)propyl)-1H-indol-5-yl)methyl)phenyl)(4-(2-(6-methoxynaphthalen-2-yl)ethyl)piperazin-1-yl)methanone] |  |  | 3600 | 4200 | 5700 | 4800 | 4300 | 3900 | 3300 |  |  |  |  |  |  |  | -13 | -13 | -10 | -10 | inhibition at 1 µM [11]: -4%; inhibition at 10 µM [11]: -7%; inhibition at 0.1 µM [12]: 21%; inhibition at 1 µM [12]: 42%; inhibition at 10 µM [12]: 86%; inhibition at 0.1 µM [13]: 1%; inhibition at 1 µM [13]: 8%; inhibition at 10 µM [13]: 11%; inhibition at 0.1 µM [14]: 24%; inhibition at 1 µM [14]: 58%; inhibition at 10 µM [14]: 86%; inhibition at 0.1 µM [15]: -19%; inhibition at 1 µM [15]: -20%; inhibition at 10 µM [15]: 30% |
